Measurements reported in US11180497B2 (ANGEX PHARMACEUTICAL, INC., priority 2017, dated 2021).

Target: T1, Human IDO (Homo sapiens, UniProt P14902)
T1 construct: High control is Hela cells with IFNγ treatment; endogenous in cells; host or cells: HeLa cells treated with 25 ng/ml IFNγ
Assay: HeLa cell IDO assay (IFNγ-treated cells, N-formylkynurenine by RapidFire/MS/MS)
Format: cell-based
Conditions: 25 ng/ml IFNγ, 200 μM Trp, 48 hours, class symbol

T1 sequence (P14902 whole entry): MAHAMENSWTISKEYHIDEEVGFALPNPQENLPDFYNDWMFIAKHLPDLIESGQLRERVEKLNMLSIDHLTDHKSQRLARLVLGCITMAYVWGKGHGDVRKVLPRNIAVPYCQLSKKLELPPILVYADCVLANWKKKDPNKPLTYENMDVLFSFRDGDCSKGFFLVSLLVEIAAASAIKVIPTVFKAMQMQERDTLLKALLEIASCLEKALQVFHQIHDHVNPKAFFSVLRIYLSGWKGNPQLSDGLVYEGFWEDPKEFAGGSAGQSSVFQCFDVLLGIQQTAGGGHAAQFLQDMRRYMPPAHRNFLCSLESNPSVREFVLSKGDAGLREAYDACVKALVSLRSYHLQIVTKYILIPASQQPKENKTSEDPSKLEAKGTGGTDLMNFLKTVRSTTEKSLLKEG

| SMILES | IC50 |
| --- | --- |
| O=C(Nc1ccc(Cl)cc1)C1CC12CCC(c1ccnc3ccncc13)CC2 (racemic) [Compound 6-9, N-(4-chlorophenyl)-6-(1,6-naphthyridin-4-yl)spiro[2.5]octane-1-carboxamide] | < 100 nM |
| O=C(Nc1ccc(Cl)cc1)C1CC12CCC(c1ccnc3ccc(F)cc13)CC2 (single isomer, unassigned) [Compound 1-10, N-(4-chlorophenyl)-6-(6-fluoroquinolin-4-yl)spiro[2.5]octane-1-carboxamide] | < 100 nM |
| O=C(Nc1ccc(Cl)cc1)C1CC12CCC(c1ccnc3ccc(F)cc13)CC2 (single isomer, unassigned) [Compound 1-11, N-(4-chlorophenyl)-6-(6-fluoroquinolin-4-yl)spiro[2.5]octane-1-carboxamide] | > 1000 nM |
| O=C(Nc1ccc(Br)cc1)[C@H]1C[C@]12CC[C@H](c1ccnc3ccc(F)cc31)CC2 (single isomer, unassigned) [Compound 4-4] | < 100 nM |
| O=C(Nc1ccc(I)cc1)[C@H]1C[C@]12CC[C@H](c1ccnc3ccc(F)cc31)CC2 (single isomer, unassigned) [Compound 4-5] | < 100 nM |
| N#Cc1ccc(NC(=O)[C@H]2C[C@]23CC[C@H](c2ccnc4ccc(F)cc42)CC3)cc1 (single isomer, unassigned) [Compound 4-6] | < 100 nM |
| O=C(Nc1ccc(Cl)cc1F)[C@H]1C[C@]12CC[C@H](c1ccnc3ccc(F)cc31)CC2 (single isomer, unassigned) [Compound 4-7] | < 100 nM |
| O=C(Nc1ccc(Br)cc1F)[C@H]1C[C@]12CC[C@H](c1ccnc3ccc(F)cc31)CC2 (single isomer, unassigned) [Compound 4-8] | < 100 nM |
| O=C(Nc1ccc(I)cc1F)[C@H]1C[C@]12CC[C@H](c1ccnc3ccc(F)cc31)CC2 (single isomer, unassigned) [Compound 4-9] | < 100 nM |
| O=C(Nc1ccc(C(F)(F)F)cn1)[C@H]1C[C@]12CC[C@H](c1ccnc3ccc(F)cc31)CC2 (stereo in doubt) [Compound 3-2, 6-(6-fluoroquinolin-4-yl)-N-(5-(trifluoromethyl)pyridin-2-yl)spiro[2.5]octane-1-carboxamide] | > 1000 nM |
| O=C(Nc1ccc(Cl)cc1)C1CC12CCC(c1ccnc3ccc(F)cc13)CC2 (stereo not drawn) [Compound 1-9, N-(4-chlorophenyl)-6-(6-fluoroquinolin-4-yl)spiro[2.5]octane-1-carboxamide] | < 100 nM |
| O=C(Nc1ccc(F)cc1)[C@H]1C[C@]12CC[C@H](c1ccnc3ccc(F)cc31)CC2 [Compound 1-12] | < 100 nM |
| O=C(Nc1ccc(C2CC2)cc1)[C@H]1C[C@]12CC[C@H](c1ccnc3ccc(F)cc31)CC2 [Compound 1-13] | 100 to 1000 nM |

More lines, now with the values ahead:

| IC50 | SMILES |
| --- | --- |
| < 100 nM | O=C(Nc1ccc(Cl)cc1)C1(C2CCC(c3ccnc4ccncc34)CC2)CC1 (mixture of isomers) [Compound 29-6, 1-(4-(1,6-naphthyridin-4-yl)cyclohexyl)-N-(4-chlorophenyl) cyclopropane-1-carboxamide] |
| < 100 nM | O=C(Nc1ccc(Cl)cc1)C1CC12CCC(c1ccnc3ccncc13)CC2 (single isomer, unassigned) [Compound 7-6, N-(4-chlorophenyl)-6-(1,6-naphthyridin-4-yl)spiro[2.5]octane-1-carboxamide] |
| > 1000 nM | O=C(Nc1ccc(Cl)cc1)C1CC12CCC(c1ccnc3ccncc13)CC2 (single isomer, unassigned) [Compound 7-7, N-(4-chlorophenyl)-6-(1,6-naphthyridin-4-yl)spiro[2.5]octane-1-carboxamide] |
| < 100 nM | O=C(NC1CC12CCC(c1ccnc3ccc(F)cc13)CC2)c1ccc(Cl)cc1 (single isomer, unassigned) [Compound 9-4, 4-chloro-N-(6-(6-fluoroquinolin-4-yl)spiro[2.5]octan-1-yl)benzamide] |
| > 1000 nM | O=C(NC1CC12CCC(c1ccnc3ccc(F)cc13)CC2)c1ccc(Cl)cc1 (single isomer, unassigned) [Compound 9-5, 4-chloro-N-(6-(6-fluoroquinolin-4-yl)spiro[2.5]octan-1-yl)benzamide] |
| < 100 nM | CC1(C(=O)Nc2ccc(Cl)cc2)CC12CCC(c1ccnc3ccc(F)cc13)CC2 (single isomer, unassigned) [Compound 11-5, N-(4-chlorophenyl)-6-(6-fluoroquinolin-4-yl)-1-methylspiro[2.5]octane-1-carboxamide] |
| < 100 nM | CC1(C(=O)Nc2ccc(Cl)cc2)CC12CCC(c1ccnc3ccc(F)cc13)CC2 (single isomer, unassigned) [Compound 11-6, N-(4-chlorophenyl)-6-(6-fluoroquinolin-4-yl)-1-methylspiro[2.5]octane-1-carboxamide] |
| < 100 nM | O=C(Nc1ccc(Cl)cc1)C1CC12CCN(c1ccnc3ccc(F)cc13)CC2 (single isomer, unassigned) [Compound 12-6, N-(4-chlorophenyl)-6-(6-fluoroquinolin-4-yl)-6-azaspiro[2.5]octane-1-carboxamide] |
| > 1000 nM | O=C(Nc1ccc(Cl)cc1)C1CC12CCN(c1ccnc3ccc(F)cc13)CC2 (single isomer, unassigned) [Compound 12-7, N-(4-chlorophenyl)-6-(6-fluoroquinolin-4-yl)-6-azaspiro[2.5]octane-1-carboxamide] |
| < 100 nM | O=C(Nc1ccc(Cl)cc1)C1CC2(CCC(c3ccnc4ccc(F)cc34)CC2)C1 (single isomer, unassigned) [Compound 16-7, N-(4-chlorophenyl)-7-(6-fluoroquinolin-4-yl)spiro[3.5]nonane-2-carboxamide] |
| > 1000 nM | O=C(Nc1ccc(Cl)cc1)C1CC2(CCC(c3ccnc4ccc(F)cc34)CC2)C1 (single isomer, unassigned) [Compound 16-8, N-(4-chlorophenyl)-7-(6-fluoroquinolin-4-yl)spiro[3.5]nonane-2-carboxamide] |
| < 100 nM | O=C(NC1CC2(CCC(c3ccnc4ccc(F)cc34)CC2)C1)c1ccc(Cl)cc1 (single isomer, unassigned) [Compound 17-6, 4-chloro-N-(7-(6-fluoroquinolin-4-yl)spiro[3.5]nonan-2-yl)benzamide] |
| 100 to 1000 nM | O=C(NC1CC2(CCC(c3ccnc4ccc(F)cc34)CC2)C1)c1ccc(Cl)cc1 (single isomer, unassigned) [Compound 17-7, 4-chloro-N-(7-(6-fluoroquinolin-4-yl)spiro[3.5]nonan-2-yl)benzamide] |
| < 100 nM | O=C(Nc1ccc(Cl)cc1)C1CC2(CCC(c3ccnc4ccncc34)CC2)C1 (single isomer, unassigned) [Compound 20-8, N-(4-chlorophenyl)-7-(1,6-naphthyridin-4-yl)spiro[3.5]nonane-2-carboxamide] |
| > 1000 nM | O=C(Nc1ccc(Cl)cc1)C1CC2(CCC(c3ccnc4ccncc34)CC2)C1 (single isomer, unassigned) [Compound 20-9, N-(4-chlorophenyl)-7-(1,6-naphthyridin-4-yl)spiro[3.5]nonane-2-carboxamide] |
| < 100 nM | O=C(N[C@H]1CC2(CC[C@H](c3ccnc4ccncc43)CC2)C1)c1ccc(Cl)cc1 (single isomer, unassigned) [Compound 21-4] |
| > 1000 nM | O=C(N[C@H]1CC2(CC[C@H](c3ccnc4ccncc43)CC2)C1)c1ccc(Cl)cc1 (single isomer, unassigned) [Compound 21-5] |
